Target: T1, recombinant human ALK protein (Homo sapiens, UniProt Q9UM73)
T1 construct: purchased Life Technologies Inc. PV3867
Experiment: LanthaScreen TR-FRET in vitro inhibitory activity assay of ALK
Format: biochemical
Settings: for Averaged Enzymatic Inhibition @ 2ug/ml (%) / inhibition at 2 µg/mL: compound at 2ug/ml; for IC50: TR-FRET, 5 μM ATP, 1 hour at room temperature; for inhibition at 2 µg/mL: read-out: Averaged Enzymatic Inhibition @ 2ug/ml (%)
Protocol: All reagents and anhydrous solvents were obtained from commercial sources and used as received. The positive control inhibitors of ALK, crizotinib and ceritinib, were purchased from Bangshunda Technology and Selleck Chemicals, respectively. The compounds were dissolved in 100% dimethyl sulfoxide (DMSO) as a 10 mM stock solution. The final DMSO concentration in each reaction was less than 1%. Purified recombinant human ALK protein (Catalog number: PV3867) as well as reagents for TR-FRET assay, including Lantha Screen™ Tb-PY20 (Catalog number: PV3552), Fluorescein-Poly GT (Catalog number: PV3610), ATP (Catalog number: PV3227), Kinase Quench Buffer (Catalog number: P2832), Kinase Buffer (Catalog number: PV3189), and Antibody Dilution Buffer (Catalog number: PV3574), were all obtained from Life Technologies Inc.
Lantha Screen™ kinase assay based on TR-FRET technology was used to measure the inhibitory activity of the screened compounds. All the assays were carried out in 384-well plate format. The 4 × test compounds were firstly prepared before the enzyme reaction starts. The 4 × recombinant human ALK protein and 2 × Substrate/ATP mixture were separately prepared in 50 mM HEPES (pH = 7.5), 0.01% BRIJ-35, 10 mM MgCl2, 4 mM MnCl2, 1 mM EGTA, and 2 mM DTT. The final 10 μL kinase reaction consists of 5 μL 1 × Substrate/ATP mixture (0.2 μM substrate and 5 μM ATP), 2.5 μL ALK (5 ng/ml ALK protein), and 2.5 μL 1 × test compounds with desired concentration. The assay plate was shook on a plate shaker for 30 seconds to mix the reactions thoroughly. After 1 hour kinase reaction incubation at room temperature (20 ~ 25 °C), 10 μL of pre-prepared 20 mM EDTA and 4 nM Tb-labeled antibody solution was then added to terminate the kinase reactions and to initiate antibody binding, and the assay plate was incubated for another 1 hour at room temperature. Then, the assay plate was placed into a fluorescence plate reader (BioTek Synergy™ 4) to measure both fluoresce in and terbium emission signals (excitation: 340 nm; emission: 520 and 495 nm, respectively) with 100 μs delay time and 200 μs integration time. To determine the IC50 values, the resulted inhibitory activity calculated from TR-FRET emission ratio (i.e. fluoresce in emission intensity/terbium emission intensity) was plotted against the concentration of inhibitor, and the data was fitted to a dose-response curve with a variable slop.

T1 sequence (Q9UM73 1058-1620 limits assumed): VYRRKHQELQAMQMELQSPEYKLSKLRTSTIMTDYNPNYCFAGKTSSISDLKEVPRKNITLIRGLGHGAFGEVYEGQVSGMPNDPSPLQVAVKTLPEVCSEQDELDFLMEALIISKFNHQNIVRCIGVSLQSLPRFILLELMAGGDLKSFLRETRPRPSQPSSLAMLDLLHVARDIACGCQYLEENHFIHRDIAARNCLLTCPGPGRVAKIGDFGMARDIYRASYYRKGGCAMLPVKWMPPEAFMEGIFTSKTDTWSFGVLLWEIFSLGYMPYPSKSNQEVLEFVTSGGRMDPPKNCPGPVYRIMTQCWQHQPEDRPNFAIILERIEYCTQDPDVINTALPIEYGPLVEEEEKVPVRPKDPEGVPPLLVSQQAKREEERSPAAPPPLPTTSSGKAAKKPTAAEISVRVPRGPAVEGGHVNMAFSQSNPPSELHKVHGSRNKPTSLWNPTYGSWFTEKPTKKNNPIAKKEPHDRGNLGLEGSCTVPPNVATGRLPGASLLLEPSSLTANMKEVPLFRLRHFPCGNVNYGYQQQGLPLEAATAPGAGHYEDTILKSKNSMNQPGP

c1ccc(-c2cc(-c3c(-c4ccccc4)cn4c3sc3ccccc34)c(-c3ccccc3)nn2)cc1 [AQ-344/43100304]
Averaged Enzymatic Inhibition @ 2ug/ml (%): -14.115%

COc1ccc(Cl)cc1C(=O)NCCNc1ccc(-n2nc(C)cc2C)nn1 [AQ-432/43400100]
Averaged Enzymatic Inhibition @ 2ug/ml (%): -6.36%

CC(NS(=O)(=O)c1cccc(Cl)c1)C(=O)Nc1cccc(-c2nc3ccccc3s2)c1 (stereo not drawn) [AQ-750/42209760]
Averaged Enzymatic Inhibition @ 2ug/ml (%): 13.425%

O=c1oc2ccccc2cc1-c1nnc(NC2CCCCC2)s1 [AQ-968/42007731]
Averaged Enzymatic Inhibition @ 2ug/ml (%): -5.865%

Cc1cccn2c(=O)c3cc(C(=O)NC(C)c4ccccc4)c(=N)n(CCc4ccccc4)c3nc12 (stereo not drawn) [AS-871/41399397]
Averaged Enzymatic Inhibition @ 2ug/ml (%): -8.995%

OC(CON=C1c2ccccc2-c2ccccc21)CN1CCN(c2ccc(Cl)cc2)CC1 (stereo not drawn) [AS-871/42941985]
Averaged Enzymatic Inhibition @ 2ug/ml (%): -10.47%

O=C(c1cc(C(=O)N2CCN(c3ccccc3)CC2)cc(C(=O)N2CCN(c3ccccc3)CC2)c1)N1CCN(c2ccccc2)CC1 [Compound A1]
IC50: 0.572 µM
inhibition at 2 µg/mL: 80.6%

O=C(CN1C(=O)C(=NNC(=O)c2ccc(NC(=O)c3ccccc3)cc2)c2ccccc21)Nc1ccccc1 [Compound A2]
IC50: 0.832 µM
inhibition at 2 µg/mL: 50.4%

Cc1ccc(C)c(N2CCN(C3CC(=O)N(c4ccc(N5C(=O)CC(N6CCN(c7cc(C)ccc7C)CC6)C5=O)cc4)C3=O)CC2)c1 (stereo not drawn) [Compound A3]
IC50: 1.54 µM
inhibition at 2 µg/mL: 65.8%

Cc1ccc(N2C(=O)C(=Cc3ccc(C)s3)C(=O)N(c3ccc(C)cc3C)C2=S)c(C)c1 [Compound M3]
IC50: 0.515 µM
inhibition at 2 µg/mL: 91.5%

COc1cc(/C=C2/C(=N)N3N=C(c4ccccc4Cl)SC3=NC2=O)ccc1O [Compound M4]
IC50: 0.863 µM
inhibition at 2 µg/mL: 70.5%

CN1C(=O)c2cccc3c(S(=O)(=O)Nc4nc[nH]n4)ccc1c23 [Compound M6]
IC50: 4.45 µM
inhibition at 2 µg/mL: 53.3%

CCN1C(=O)c2cccc3c(S(=O)(=O)Nc4nc5ccccc5s4)ccc1c23 [Compound M7]
IC50: 6.05 µM
inhibition at 2 µg/mL: 50.8%

Cc1cccc2cc3c(nc12)N(C(=O)c1ccc(S(=O)(=O)N2CCCCC2)cc1)CC3 [Compound M8]
IC50: 11.5 µM
Averaged Enzymatic Inhibition @ 2ug/ml (%): 48.88%

Cc1c(C=C2C(=O)N(C)C(=S)N(C)C2=O)c2ccccc2n1Cc1ccccc1 [Compound M9]
IC50: 18.2 µM
Averaged Enzymatic Inhibition @ 2ug/ml (%): 37.24%

Source: publication PMC4840416, “Constructing and Validating High-Performance MIEC-SVM Models in Virtual Screening for Kinases: A Better Way for Actives Discovery” (Scientific Reports, 2016)
